# How the values were obtained:
# CASOB (Sicklepod) = assay: Postemergence herbicidal evaluation; assay type: in vivo, Cassia obtusifolia; settings: postemergence
# In short: (§1)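 Each compound, dispersed in an acetone/water mix (50/50) carrying 0.5% TWEEN 20, is nozzle-sprayed at 40 psi on approximately two-week-old seedlings at about 0.0156–0.500 kg/ha. Plants are assessed 4–5 weeks afterward on a 0–9 scale relative to control; duplicate tests are averaged.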
# [1] = tested on: CHEAL (Lambsquarters, Common); assay: Postemergence herbicidal evaluation; assay type: in vivo, Chenopodium album; settings: postemergence
# In short: as §1
# GALAP (Galium) = assay: Postemergence herbicidal evaluation; assay type: in vivo, Galium aparine; settings: postemergence
# In short: as §1
# ORYSAT (Rice, Tebonnet) [2] = assay: Postemergence herbicidal evaluation; assay type: in vivo, Oryza sativa, (L.) Tebonnet; settings: postemergence
# In short: as §1
# ZEAMX (Corn, Field) = assay: Postemergence herbicidal evaluation; assay type: in vivo, Zea mays; settings: postemergence
# In short: as §1
# AMBEL (Ragweed, Common) = assay: Preemergence herbicidal evaluation; assay type: in vivo, Ambrosia artemisifolia; settings: preemergence, rated 4-5 weeks after treatment, 0-9 scale
# In short: (§2)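 Seeds were mixed with potting soil and planted on about one inch of soil, then sprayed with test compound in aqueous acetone at about 0.0156 to 0.500 kg per hectare. Plants grew under standard greenhouse care and were visually rated 0-9 against untreated controls 4-5 weeks post-treatment.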
# SETVI (Foxtail, Green) = assay: Preemergence herbicidal evaluation; assay type: in vivo, Setaria viridis; settings: preemergence, rated 4-5 weeks after treatment, 0-9 scale
# In short: as §2
# [3] = tested on: GLXMAW (Soybean, Williams); assay: Preemergence herbicidal evaluation; assay type: in vivo, Glycine max, (L.) Merr. cv Williams; settings: preemergence, rated 4-5 weeks after treatment, 0-9 scale
# In short: as §2
# ORYSAT (Rice, Tebonnet) [4] = assay: Preemergence herbicidal evaluation; assay type: in vivo, Oryza sativa, (L.) Tebonnet; settings: preemergence, rated 4-5 weeks after treatment, 0-9 scale
# In short: as §2
# CYPSE (Flatsedge) [5] = assay: Preemergence weed control under flooded paddy conditions; assay type: in vivo, Cyperus serotinus; settings: rated 3-4 weeks after treatment
# In short: (§3)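 Visual injury scored 0-9 against control three to four weeks post-treatment, greenhouse-grown. Application: acetone/water (50/50) solutions dosed directly into flood water (1.5-3 cm over silt loam, planted top 0.5 cm), roughly 0.0313 to 0.500 kg/ha active ingredient.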
# MOOVA (Monochoria) = assay: as above; assay type: in vivo, Monochoria vaginalis; settings: rated 3-4 weeks after treatment
# In short: as §3
# CYPIR (Rice Flatsedge) = assay: Postemergence weed control under flooded paddy conditions; assay type: in vivo, Cyperus iria; settings: postemergence weeds, rated 3 to 4 weeks after treatment
# In short: (§4)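 Weeds 3 to 5 cm tall and rice seedlings at the 1.5 to 2.5 leaf stage were flooded, with water held 1.5 to 3 cm above the soil. Compounds in 50/50 v/v aqueous/acetone went into the flood water at about 0.0313 to 0.500 kg/ha. Visual 0-9 ratings versus control were made 3 to 4 weeks later.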
# CYPSE (Flatsedge) [6] = assay: as above; assay type: in vivo, Cyperus serotinus; settings: postemergence weeds, rated 3 to 4 weeks after treatment
# In short: as §4
compound,measurement,setting,value
"CCOC(=O)CN1C(=O)C(CC(=O)NO)S/C1=N/c1cc(-n2c(=O)cc(C(F)(F)F)n(C)c2=O)c(F)cc1Cl (stereo not drawn) [Compound 98, Ethyl 2-{{2-chloro-5-[3,6-dihydro-3-methyl-2,6-dioxo-4-(trifluoromethyl)-1(2H)-pyrimidinyl]-4-fluorophenyl}imino}-5-[(hydroxycarbamoyl)methyl]-4-oxo-3-thiazolidineacetate]",CASOB herbicidal rating,CASOB (Sicklepod); rate 0.0156 kg/ha,0.0
same,CASOB herbicidal rating,CASOB (Sicklepod); rate 0.0313 kg/ha,0.0
same,CASOB herbicidal rating,CASOB (Sicklepod); rate 0.0625 kg/ha,0.0
same,CASOB herbicidal rating,CASOB (Sicklepod); rate 0.1250 kg/ha,1.0
same,CHEAL herbicidal rating,[1]; rate 0.0156 kg/ha,0.0
same,CHEAL herbicidal rating,[1]; rate 0.0313 kg/ha,1.0
same,CHEAL herbicidal rating,[1]; rate 0.0625 kg/ha,3.0
same,CHEAL herbicidal rating,[1]; rate 0.1250 kg/ha,9.0
same,GALAP herbicidal rating,GALAP (Galium); rate 0.0156 kg/ha,0.0
same,GALAP herbicidal rating,GALAP (Galium); rate 0.0313 kg/ha,0.0
same,GALAP herbicidal rating,GALAP (Galium); rate 0.0625 kg/ha,0.0
same,GALAP herbicidal rating,GALAP (Galium); rate 0.1250 kg/ha,1.0
same,ORYSAT herbicidal rating,"ORYSAT (Rice, Tebonnet) [2]; rate 0.0156 kg/ha",1.5
same,ORYSAT herbicidal rating,"ORYSAT (Rice, Tebonnet) [2]; rate 0.0313 kg/ha",2.5
same,ORYSAT herbicidal rating,"ORYSAT (Rice, Tebonnet) [2]; rate 0.0625 kg/ha",2.5
same,ORYSAT herbicidal rating,"ORYSAT (Rice, Tebonnet) [2]; rate 0.1250 kg/ha",2.0
same,ZEAMX herbicidal rating,"ZEAMX (Corn, Field); rate 0.0156 kg/ha",3.0
same,ZEAMX herbicidal rating,"ZEAMX (Corn, Field); rate 0.0313 kg/ha",4.0
same,ZEAMX herbicidal rating,"ZEAMX (Corn, Field); rate 0.0625 kg/ha",4.0
same,ZEAMX herbicidal rating,"ZEAMX (Corn, Field); rate 0.1250 kg/ha",5.0
same,AMBEL rating,"AMBEL (Ragweed, Common); 0.0156 kg/ha",0.0
same,AMBEL rating,"AMBEL (Ragweed, Common); 0.0313 kg/ha",0.0
same,AMBEL rating,"AMBEL (Ragweed, Common); 0.0625 kg/ha",2.0
same,AMBEL rating,"AMBEL (Ragweed, Common); 0.1250 kg/ha",3.0
same,AMBEL rating,"AMBEL (Ragweed, Common); 0.2500 kg/ha",5.0
same,AMBEL rating,"AMBEL (Ragweed, Common); 0.5000 kg/ha",7.0
same,SETVI rating,"SETVI (Foxtail, Green); 0.0156 kg/ha",0.0
same,SETVI rating,"SETVI (Foxtail, Green); 0.0313 kg/ha",1.0
same,SETVI rating,"SETVI (Foxtail, Green); 0.0625 kg/ha",0.0
same,SETVI rating,"SETVI (Foxtail, Green); 0.1250 kg/ha",4.0
same,SETVI rating,"SETVI (Foxtail, Green); 0.2500 kg/ha",3.0
same,SETVI rating,"SETVI (Foxtail, Green); 0.5000 kg/ha",7.0
same,GLXMAW rating,[3]; 0.0156 kg/ha,0.0
same,GLXMAW rating,[3]; 0.0313 kg/ha,0.0
same,GLXMAW rating,[3]; 0.0625 kg/ha,1.0
same,GLXMAW rating,[3]; 0.1250 kg/ha,1.0
same,GLXMAW rating,[3]; 0.2500 kg/ha,4.0
same,GLXMAW rating,[3]; 0.5000 kg/ha,5.0
same,ORYSAT rating,"ORYSAT (Rice, Tebonnet) [4]; 0.0156 kg/ha",0.0
same,ORYSAT rating,"ORYSAT (Rice, Tebonnet) [4]; 0.0313 kg/ha",0.0
same,ORYSAT rating,"ORYSAT (Rice, Tebonnet) [4]; 0.0625 kg/ha",0.0
same,ORYSAT rating,"ORYSAT (Rice, Tebonnet) [4]; 0.1250 kg/ha",0.0
same,ORYSAT rating,"ORYSAT (Rice, Tebonnet) [4]; 0.2500 kg/ha",1.0
same,ORYSAT rating,"ORYSAT (Rice, Tebonnet) [4]; 0.5000 kg/ha",4.0
same,CYPSE herbicidal effect rating,CYPSE (Flatsedge) [5]; 0.0313 kg/ha,2.0
same,CYPSE herbicidal effect rating,CYPSE (Flatsedge) [5]; 0.0625 kg/ha,3.0
same,CYPSE herbicidal effect rating,CYPSE (Flatsedge) [5]; 0.1250 kg/ha,4.0
same,CYPSE herbicidal effect rating,CYPSE (Flatsedge) [5]; 0.2500 kg/ha,4.0
same,MOOVA herbicidal effect rating,MOOVA (Monochoria); 0.0313 kg/ha,9.0
same,MOOVA herbicidal effect rating,MOOVA (Monochoria); 0.0625 kg/ha,9.0
same,MOOVA herbicidal effect rating,MOOVA (Monochoria); 0.1250 kg/ha,9.0
same,MOOVA herbicidal effect rating,MOOVA (Monochoria); 0.2500 kg/ha,9.0
same,Herbicidal rating CYPIR,CYPIR (Rice Flatsedge); Rate 0.0313 kg/ha,9.0
same,Herbicidal rating CYPIR,CYPIR (Rice Flatsedge); Rate 0.0625 kg/ha,9.0
same,Herbicidal rating CYPIR,CYPIR (Rice Flatsedge); Rate 0.1250 kg/ha,9.0
same,Herbicidal rating CYPIR,CYPIR (Rice Flatsedge); Rate 0.2500 kg/ha,9.0
same,Herbicidal rating CYPSE,CYPSE (Flatsedge) [6]; Rate 0.0313 kg/ha,2.0
same,Herbicidal rating CYPSE,CYPSE (Flatsedge) [6]; Rate 0.0625 kg/ha,3.0
same,Herbicidal rating CYPSE,CYPSE (Flatsedge) [6]; Rate 0.1250 kg/ha,4.0
same,Herbicidal rating CYPSE,CYPSE (Flatsedge) [6]; Rate 0.2500 kg/ha,4.0

# From patent publication US20020137929A1, “1 - (3-heterocyclylphenyl) isothiourea, -isourea, -guanidine and -amidine herbicidal agents” (Intellectual Property Department, BASF Aktiengesellschaft, priority 1998, published 2002)
